How the values were obtained:
[1] = target: Serine/threonine-protein kinase PLK1 (Homo sapiens, UniProt P53350); assay: Inhibition of PLK1 (unknown origin) by FRET-based homogeneous assay
[2] = target: Cytochrome P450 2C19 (Homo sapiens, UniProt P33261); assay: Inhibition of CYP2C19 (unknown origin) using MFC as substrate after 30 mins by fluorescence assay; format: ADME
[3] = test system: SK-BR-3; assay: Antiproliferative activity against human SKBR3 cells assessed as growth inhibition after 5 days by SRB assay; format: functional; conditions: SK-BR-3, 120 h
[4] = target: T1, Cytochrome P450 1A2 (Homo sapiens, UniProt P05177); assay: Inhibition of CYP1A2 (unknown origin) using CEC as substrate after 15 mins by fluorescence assay; format: ADME
T1 sequence (P05177 whole entry): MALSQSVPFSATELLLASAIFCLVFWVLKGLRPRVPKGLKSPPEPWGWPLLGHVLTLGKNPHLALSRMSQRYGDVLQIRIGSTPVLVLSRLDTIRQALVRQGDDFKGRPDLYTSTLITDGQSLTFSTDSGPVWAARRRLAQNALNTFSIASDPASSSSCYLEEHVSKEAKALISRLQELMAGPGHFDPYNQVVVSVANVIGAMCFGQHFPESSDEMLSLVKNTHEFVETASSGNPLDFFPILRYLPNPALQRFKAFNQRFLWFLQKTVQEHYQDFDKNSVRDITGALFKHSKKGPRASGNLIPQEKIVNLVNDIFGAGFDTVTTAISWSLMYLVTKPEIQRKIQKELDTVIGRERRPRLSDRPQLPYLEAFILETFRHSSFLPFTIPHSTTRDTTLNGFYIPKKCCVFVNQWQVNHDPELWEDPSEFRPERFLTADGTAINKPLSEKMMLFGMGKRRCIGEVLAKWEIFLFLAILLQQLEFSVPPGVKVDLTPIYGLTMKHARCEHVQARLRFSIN

[5] = test system: MDA-MB-231; assay: Antiproliferative activity against human MDA-MB-231 cells assessed as growth inhibition after 5 days by SRB assay; format: functional; conditions: MDA-MB-231, 120 h
[6] = test system: MCF7; assay: Antiproliferative activity against human MCF7 cells assessed as growth inhibition after 5 days by SRB assay; format: functional; conditions: MCF7, 120 h
[7] = target: Cytochrome P450 2C9 (Homo sapiens, UniProt P11712); assay: Inhibition of CYP2C9 (unknown origin) using MFC as substrate after 45 mins by fluorescence assay; format: ADME
[8] = test system: HCC1954; assay: Antiproliferative activity against human HCC1954 cells assessed as growth inhibition after 5 days by SRB assay; format: functional; conditions: HCC1954, 120 h
[9] = Permeability of the compound at pH 7.4 by PAMPA; format: ADME; conditions: read-out: permeability
[10] = target: Cytochrome P450 3A4 (Homo sapiens, UniProt P08684); assay: Inhibition of CYP3A4 (unknown origin) after 10 mins by fluorescence assay; format: ADME
[11] = target: Serine/threonine-protein kinase PLK3 (Homo sapiens, UniProt Q9H4B4); assay: Inhibition of PLK3 (unknown origin) by FRET-based homogeneous assay
[12] = target: Serine/threonine-protein kinase PLK2 (Homo sapiens, UniProt Q9NYY3); assay: Inhibition of PLK2 (unknown origin) by FRET-based homogeneous assay
[13] = target: Cytochrome P450 2D6 (Homo sapiens, UniProt P10635); assay: Inhibition of CYP2D6 (unknown origin) using AMMC as substrate after 30 mins by fluorescence assay; format: ADME
[14] = target: T2, Serine/threonine-protein kinase PLK4 (Homo sapiens, UniProt O00444); assay: Inhibition of N-terminal GST-tagged human PLK4 (1 to 391 amino acids) expressed in Escherichia coli using TMB as substrate after 30 mins by indirect ELISA assay
T2 sequence (O00444 whole entry): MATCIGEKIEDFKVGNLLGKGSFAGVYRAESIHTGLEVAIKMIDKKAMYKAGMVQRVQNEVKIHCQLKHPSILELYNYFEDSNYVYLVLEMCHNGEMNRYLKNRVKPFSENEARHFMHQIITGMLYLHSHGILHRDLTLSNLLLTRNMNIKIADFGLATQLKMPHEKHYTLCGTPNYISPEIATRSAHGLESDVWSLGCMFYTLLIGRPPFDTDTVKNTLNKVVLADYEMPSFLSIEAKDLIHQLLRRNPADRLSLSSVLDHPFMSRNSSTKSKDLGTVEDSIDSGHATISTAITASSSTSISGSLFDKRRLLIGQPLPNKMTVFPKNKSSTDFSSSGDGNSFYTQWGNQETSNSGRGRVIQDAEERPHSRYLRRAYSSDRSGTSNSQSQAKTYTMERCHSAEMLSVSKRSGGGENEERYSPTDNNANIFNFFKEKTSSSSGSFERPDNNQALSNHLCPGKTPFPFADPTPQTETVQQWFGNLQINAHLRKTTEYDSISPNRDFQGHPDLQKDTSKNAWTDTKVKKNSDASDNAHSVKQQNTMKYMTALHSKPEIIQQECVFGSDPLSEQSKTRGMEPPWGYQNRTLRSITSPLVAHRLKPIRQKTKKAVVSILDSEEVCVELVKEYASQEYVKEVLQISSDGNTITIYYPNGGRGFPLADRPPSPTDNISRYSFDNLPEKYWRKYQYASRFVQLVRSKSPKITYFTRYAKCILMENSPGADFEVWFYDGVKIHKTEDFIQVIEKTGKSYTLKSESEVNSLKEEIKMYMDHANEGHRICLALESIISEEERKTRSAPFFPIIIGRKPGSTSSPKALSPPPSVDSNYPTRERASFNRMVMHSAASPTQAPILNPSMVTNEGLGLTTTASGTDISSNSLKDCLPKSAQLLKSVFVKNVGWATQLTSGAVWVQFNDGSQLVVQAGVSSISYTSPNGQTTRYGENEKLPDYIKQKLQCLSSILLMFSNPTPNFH

[15] = test system: MDA-MB-468; assay: Antiproliferative activity against human MDA-MB-468 cells assessed as growth inhibition after 5 days by SRB assay; format: functional; conditions: MDA-MB-468, 120 h
[16] = target: T2, Serine/threonine-protein kinase PLK4; assay: Inhibition of human PLK4
[17] = test system: MDA-MB-468; assay: Cell cycle arrest in human MDA-MB-468 cells assessed as accumulation of 8N peaks at 1 uM after 2 days by FACS analysis; format: functional
[18] = test system: MDA-MB-468; assay: Cell cycle arrest in human MDA-MB-468 cells assessed as accumulation of 8N peaks at 0.25 uM after 2 days by FACS analysis; format: functional
[19] = test system: MDA-MB-468; assay: Cell cycle arrest in human MDA-MB-468 cells assessed as accumulation of 8N peaks at 0.5 uM after 2 days by FACS analysis; format: functional
[20] = test system: MDA-MB-468; assay: Cell cycle arrest in human MDA-MB-468 cells assessed as accumulation at G1 phase at 1 uM after 2 days by FACS analysis; format: functional
[21] = test system: MDA-MB-468; assay: Cell cycle arrest in human MDA-MB-468 cells assessed as accumulation of 16N peaks at 0.5 uM after 2 days by FACS analysis; format: functional
[22] = test system: MDA-MB-468; assay: Cell cycle arrest in human MDA-MB-468 cells assessed as accumulation at G1 phase at 0.5 uM after 2 days by FACS analysis; format: functional
[23] = test system: MDA-MB-468; assay: Cell cycle arrest in human MDA-MB-468 cells assessed as accumulation at G1 phase at 0.25 uM after 2 days by FACS analysis; format: functional
[24] = test system: MDA-MB-468; assay: Cell cycle arrest in human MDA-MB-468 cells assessed as accumulation of 16N peaks at 0.25 uM after 2 days by FACS analysis; format: functional
[25] = test system: MDA-MB-468; assay: Cell cycle arrest in human MDA-MB-468 cells assessed as accumulation of 16N peaks at 1 uM after 2 days by FACS analysis; format: functional

Sequence of Serine/threonine-protein kinase PLK1 (P53350 whole entry): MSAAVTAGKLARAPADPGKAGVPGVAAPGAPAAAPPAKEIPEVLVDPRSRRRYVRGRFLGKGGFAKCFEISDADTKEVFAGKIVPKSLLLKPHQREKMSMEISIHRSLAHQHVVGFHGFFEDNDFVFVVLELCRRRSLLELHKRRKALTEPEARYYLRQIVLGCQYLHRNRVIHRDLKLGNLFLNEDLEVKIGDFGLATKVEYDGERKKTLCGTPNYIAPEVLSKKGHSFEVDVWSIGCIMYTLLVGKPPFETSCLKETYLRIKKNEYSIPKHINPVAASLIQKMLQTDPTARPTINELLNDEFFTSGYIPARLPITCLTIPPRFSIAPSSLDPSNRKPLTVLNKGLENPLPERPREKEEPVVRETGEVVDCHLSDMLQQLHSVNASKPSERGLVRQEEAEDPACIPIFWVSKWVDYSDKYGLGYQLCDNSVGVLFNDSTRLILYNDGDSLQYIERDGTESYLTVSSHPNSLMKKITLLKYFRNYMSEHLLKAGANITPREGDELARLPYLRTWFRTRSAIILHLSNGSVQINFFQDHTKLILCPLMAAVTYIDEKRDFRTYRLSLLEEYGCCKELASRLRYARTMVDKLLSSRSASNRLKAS
Sequence of Serine/threonine-protein kinase PLK2 (Q9NYY3 whole entry): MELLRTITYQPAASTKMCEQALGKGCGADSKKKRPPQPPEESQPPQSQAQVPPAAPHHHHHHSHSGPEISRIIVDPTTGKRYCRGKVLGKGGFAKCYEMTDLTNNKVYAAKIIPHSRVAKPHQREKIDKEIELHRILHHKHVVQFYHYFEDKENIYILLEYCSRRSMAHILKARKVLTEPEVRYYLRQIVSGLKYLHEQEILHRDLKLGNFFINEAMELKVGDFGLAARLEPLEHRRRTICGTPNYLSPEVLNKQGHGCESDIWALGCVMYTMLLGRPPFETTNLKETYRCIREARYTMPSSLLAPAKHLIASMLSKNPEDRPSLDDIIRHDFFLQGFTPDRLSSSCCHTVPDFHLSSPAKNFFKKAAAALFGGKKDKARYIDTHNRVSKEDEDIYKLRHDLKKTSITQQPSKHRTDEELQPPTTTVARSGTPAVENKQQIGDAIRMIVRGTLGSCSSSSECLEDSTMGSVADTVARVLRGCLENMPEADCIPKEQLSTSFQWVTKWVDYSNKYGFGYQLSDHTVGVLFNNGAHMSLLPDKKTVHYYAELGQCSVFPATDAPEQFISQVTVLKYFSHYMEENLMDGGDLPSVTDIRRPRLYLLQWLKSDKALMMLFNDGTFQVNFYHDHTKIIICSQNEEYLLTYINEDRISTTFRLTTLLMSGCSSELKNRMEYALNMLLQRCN
Sequence of Cytochrome P450 2C19 (P33261 whole entry): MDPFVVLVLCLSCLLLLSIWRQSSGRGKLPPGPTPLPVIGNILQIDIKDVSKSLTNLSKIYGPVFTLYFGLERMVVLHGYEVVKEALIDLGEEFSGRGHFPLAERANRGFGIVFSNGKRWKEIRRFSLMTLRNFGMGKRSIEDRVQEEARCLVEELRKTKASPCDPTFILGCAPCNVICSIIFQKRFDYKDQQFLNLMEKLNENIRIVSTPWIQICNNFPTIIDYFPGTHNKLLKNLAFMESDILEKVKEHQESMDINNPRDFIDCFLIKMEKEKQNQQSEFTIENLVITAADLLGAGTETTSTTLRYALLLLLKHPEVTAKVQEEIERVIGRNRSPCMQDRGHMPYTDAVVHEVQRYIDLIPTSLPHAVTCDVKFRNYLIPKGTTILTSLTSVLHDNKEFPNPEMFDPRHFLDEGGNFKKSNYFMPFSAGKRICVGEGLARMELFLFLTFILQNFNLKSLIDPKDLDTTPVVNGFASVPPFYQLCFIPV
Sequence of Cytochrome P450 2D6 (P10635 whole entry, the tested form may be a part): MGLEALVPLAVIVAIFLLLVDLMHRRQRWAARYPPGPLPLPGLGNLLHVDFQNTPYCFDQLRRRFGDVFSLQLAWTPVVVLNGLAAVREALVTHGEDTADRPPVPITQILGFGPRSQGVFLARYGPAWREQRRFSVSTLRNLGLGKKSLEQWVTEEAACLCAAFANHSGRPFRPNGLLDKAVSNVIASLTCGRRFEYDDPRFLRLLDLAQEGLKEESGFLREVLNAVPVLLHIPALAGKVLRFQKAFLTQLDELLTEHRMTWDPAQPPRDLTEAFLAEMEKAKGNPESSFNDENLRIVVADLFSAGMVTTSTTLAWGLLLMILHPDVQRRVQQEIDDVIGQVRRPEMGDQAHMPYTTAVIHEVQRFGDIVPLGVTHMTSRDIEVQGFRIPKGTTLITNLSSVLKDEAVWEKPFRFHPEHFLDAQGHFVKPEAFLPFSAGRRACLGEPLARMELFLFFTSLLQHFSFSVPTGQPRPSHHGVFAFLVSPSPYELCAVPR
Sequence of Serine/threonine-protein kinase PLK3 (Q9H4B4 whole entry): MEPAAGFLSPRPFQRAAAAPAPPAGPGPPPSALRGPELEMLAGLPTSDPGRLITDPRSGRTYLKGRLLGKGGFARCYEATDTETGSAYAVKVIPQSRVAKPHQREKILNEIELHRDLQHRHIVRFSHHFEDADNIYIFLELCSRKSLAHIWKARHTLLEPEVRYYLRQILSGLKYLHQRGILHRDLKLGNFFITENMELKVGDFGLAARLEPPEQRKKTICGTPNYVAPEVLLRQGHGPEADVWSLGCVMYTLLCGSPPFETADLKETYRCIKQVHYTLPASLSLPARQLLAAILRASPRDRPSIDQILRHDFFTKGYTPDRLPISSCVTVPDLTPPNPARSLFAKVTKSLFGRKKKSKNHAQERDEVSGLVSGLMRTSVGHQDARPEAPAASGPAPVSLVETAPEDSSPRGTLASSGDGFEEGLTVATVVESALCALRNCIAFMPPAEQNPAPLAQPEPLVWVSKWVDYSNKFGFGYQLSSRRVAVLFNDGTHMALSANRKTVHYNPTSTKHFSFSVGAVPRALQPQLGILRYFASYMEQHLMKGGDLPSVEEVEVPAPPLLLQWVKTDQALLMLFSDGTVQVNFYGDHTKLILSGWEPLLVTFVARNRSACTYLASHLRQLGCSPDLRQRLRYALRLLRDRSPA
Sequence of Cytochrome P450 3A4 (P08684 whole entry): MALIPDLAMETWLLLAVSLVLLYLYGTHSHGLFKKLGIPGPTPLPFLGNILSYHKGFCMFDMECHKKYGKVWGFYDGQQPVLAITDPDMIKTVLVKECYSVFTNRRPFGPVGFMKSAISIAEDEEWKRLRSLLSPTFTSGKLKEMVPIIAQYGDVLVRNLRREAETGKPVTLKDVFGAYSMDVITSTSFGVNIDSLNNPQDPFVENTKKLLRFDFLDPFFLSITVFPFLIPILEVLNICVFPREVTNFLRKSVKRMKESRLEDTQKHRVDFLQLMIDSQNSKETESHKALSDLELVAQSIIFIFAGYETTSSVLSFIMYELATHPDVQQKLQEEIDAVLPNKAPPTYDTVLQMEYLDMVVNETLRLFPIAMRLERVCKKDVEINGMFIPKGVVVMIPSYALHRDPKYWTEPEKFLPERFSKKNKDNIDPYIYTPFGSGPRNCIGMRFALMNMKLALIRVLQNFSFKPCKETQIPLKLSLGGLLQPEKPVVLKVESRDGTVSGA
Sequence of Cytochrome P450 2C9 (P11712 whole entry): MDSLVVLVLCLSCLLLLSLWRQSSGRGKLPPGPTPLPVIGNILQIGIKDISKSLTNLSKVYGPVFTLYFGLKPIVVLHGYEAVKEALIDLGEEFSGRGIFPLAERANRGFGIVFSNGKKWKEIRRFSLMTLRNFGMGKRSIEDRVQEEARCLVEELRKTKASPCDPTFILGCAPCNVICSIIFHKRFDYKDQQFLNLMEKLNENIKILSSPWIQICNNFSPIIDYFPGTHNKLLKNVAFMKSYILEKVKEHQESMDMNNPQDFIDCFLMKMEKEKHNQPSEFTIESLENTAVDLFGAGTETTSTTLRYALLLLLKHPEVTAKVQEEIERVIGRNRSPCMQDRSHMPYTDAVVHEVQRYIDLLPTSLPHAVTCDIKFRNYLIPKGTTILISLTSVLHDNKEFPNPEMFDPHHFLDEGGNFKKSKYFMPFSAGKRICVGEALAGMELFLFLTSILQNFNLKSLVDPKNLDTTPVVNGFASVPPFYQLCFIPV

Compound | IC50 [1] | IC50 [2] | GI50 [3] | IC50 [4] | GI50 [5] | GI50 [6] | IC50 [7] | GI50 [8] | Papp [9] | IC50 [10] | IC50 [11] | IC50 [12] | IC50 [13] | IC50 [14] | GI50 [15] | Ki [16] | other results
CN(C)Cc1ccc(/C=C/c2n[nH]c3cc(/C=C4/C(=O)Nc5ccccc54)ccc23)cc1 | > 10000 nM | 1000 nM | 1900 nM | > 10000 nM | 2 nM | 10 nM | 1300 nM | 480 nM | 276 ×10⁻⁶ cm/s | 10000 nM | > 10000 nM | > 10000 nM | 9000 nM | 2 nM | 10 nM | – | –
COc1cc2c(cc1F)C(c1ccccc1Cl)=Nc1c(n[nH]c1C)N2 [RG-1530] | – | – | – | – | – | – | – | – | – | – | – | – | – | – | – | 11 nM | –
COCCOc1ccc2cc1OCC(=O)N(C)CCCN(C)Cc1c[nH]c3ncnc(c13)N2 | – | – | – | – | – | – | – | – | – | – | – | – | – | – | – | 25 nM | –
CN1CCN(c2ccc(/C=C/c3n[nH]c4cc(/C=C5/C(=O)Nc6ccccc65)ccc34)cn2)CC1 | > 10000 nM | 440 nM | 1100 nM | 10000 nM | < 10 nM | 20 nM | 900 nM | 370 nM | 335 ×10⁻⁶ cm/s | 800 nM | > 10000 nM | > 10000 nM | 10000 nM | 1.4 nM | 20 nM | – | –
O=C1Nc2ccccc2/C1=C\c1ccc2c(/C=C/c3ccncc3)n[nH]c2c1 | > 10000 nM | 130 nM | 25000 nM | > 10000 nM | 19000 nM | 160 nM | 20 nM | 930 nM | 197 ×10⁻⁶ cm/s | 2700 nM | > 10000 nM | > 10000 nM | > 10000 nM | 5.4 nM | 310 nM | – | Activity [17]: 32.5%; Activity [18]: 11.85%; Activity [19]: 34.3%; Activity [20]: 24.8%; Activity [21]: 6%; Activity [22]: 20.8%; Activity [23]: 11.2%; Activity [24]: 1.7%; Activity [25]: 5.2%
